Experimental data: patent publication US10258617B2, “Dosing regimens for fast onset of antidepressant effect” (H. Lundbeck A/S, priority 2016, dated 2019)
Read-outs that look alike come from different tables or passages of the source. Values belong to the molecule of their own block, whether it stands above or below them.

Key:
[1] = test system: patients with recurrent major depressive disorder; assay: Example 3 clinical trial: MADRS and CGI-I efficacy; type: in vivo, human; settings: for Change in 5-item MADRS score, Difference / Change in MADRS total score, Difference: VOR IV + VOR oral versus PBO IV + VOR oral;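 as to Change in 5-item MADRS score, Difference: apparent sadness Reported sadness Inner tension Pessimistic thoughts Suicidal thoughts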;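 as to Change in 5-item MADRS score, Mean: apparent sadness Reported sadness Inner tension Pessimistic thoughts Suicidal thoughts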
Experimental: In particular, a total of 55 patients (27 and 28 in each treatment group) were recruited to an interventional, prospective, multi-national, multi-site, randomised, double-blind, parallel-group, fixed-dose study.
The study consisted of a Screening Period—2 to 14-day period from screening to randomisation, a Treatment Period—15-day double-blind treatment period with one initial IV administration of 17 mg vortioxetine or saline and daily oral treatment with vortioxetine 10 mg and a Safety Follow-up Period—4-week period after end of treatment or after withdrawal from the study.
At the Baseline Visit, patients were equally randomised (1:1) to either of the following two dose regimens: vortioxetine 17 mg single dose (IV) and vortioxetine 10 mg/day (tablet) or placebo single dose (IV) and vortioxetine 10 mg/day (tablet).
(§1) Patients randomised to the vortioxetine IV dose regimen, received a single double-blind IV dose of 17 mg vortioxetine, infused over 2 hours, on Day 0 (baseline). Patients randomised to the vortioxetine oral dose regimen received a single double-blind IV dose of placebo (saline), infused over 2 hours, on Day 0. From Day 0 to Day 14, all patients in both treatment groups also received open labelled 10 mg/day vortioxetine by oral administration (tablets).
Following the IV infusion, patients stayed hospitalised for approximately 24 hours for close observation. After the hospitalisation period, patients continued the study on an outpatient basis.
Efficacy and safety data were collected at Days 0, 1, 3, 7, and 14, including MADRS and clinical global impression […].
The full MADRS scale may not be a suitable tool for gauging the early onset of anti-depressant effect of a drug because some of the ten items addressed in the MADRS test may require longer assessment time to validly assess a given symptom. For example, the MADRS item “Concentration Difficulties” requires that the patient has been exposed to a situation during the treatment where a change in the ability to concentrate could be identified in order for that item to truly reflect a treatment effect.

[2] = Example 3 clinical trial: vortioxetine plasma levels and simulated AUC0-24; type: in vivo; settings: human; for concentration at 2 h: Day 0, 2 hours; for concentration at 8 h: Day 0, 8 hours; for concentration at 24 h: Day 0, 24 hours; for concentration at 14 day: Day 14; for AUC(0-t): popPK simulation based on observed data
Experimental: as §1
The popPK model from example 2 was used to simulate vortioxetine plasma levels based on the observed data from Table 5. […] That is, the steady-state plasma level of vortioxetine achieved from the combined IV and oral vortioxetine administration the within 24 hours from the first dosing is essentially the same as the steady-state vortioxetine plasma level achieved at day 14 following the administration of once-daily oral vortioxetine alone in that period.

5-HT1B receptor = molecular target: T1, 5-HT1B receptor (Macaca mulatta, UniProt F6SFA9); assay: Example 1 PET monkey study: change in [11C]AZ10419369-5-HT1B receptor binding potential (BPND); type: in vivo, rhesus monkeys; settings: rhesus monkey, iv, Citalopram 0.3 mg/kg IV, mean±standard error, n=3, read-out: ΔBPND (% of baseline)
T1 construct: assess changes in the endogenous serotonin concentration in living rhesus monkeys; from tissue; host or cells: brain of living rhesus monkeys (PET)
T1 sequence (F6SFA9 1-390): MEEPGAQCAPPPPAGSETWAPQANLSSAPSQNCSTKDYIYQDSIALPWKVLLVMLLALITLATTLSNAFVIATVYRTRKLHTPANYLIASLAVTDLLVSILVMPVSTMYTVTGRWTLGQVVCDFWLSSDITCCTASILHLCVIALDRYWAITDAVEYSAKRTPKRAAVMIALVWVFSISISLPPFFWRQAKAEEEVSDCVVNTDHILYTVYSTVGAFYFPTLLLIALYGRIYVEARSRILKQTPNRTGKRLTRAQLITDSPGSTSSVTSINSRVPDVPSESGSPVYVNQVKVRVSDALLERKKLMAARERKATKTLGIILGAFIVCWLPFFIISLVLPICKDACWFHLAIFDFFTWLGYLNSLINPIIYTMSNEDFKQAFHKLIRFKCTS
From the text: Positron Emission Tomography (PET) was used to assess changes in the endogenous serotonin concentration in living rhesus monkeys. The objective of the present study was two-fold. […] The chemical name for [^11C]MADAM is [^11C] N,N-dimethyl-2-(2-amino-4-methylphenylthio)benzylamine.
FIG. 1 illustrates the study design used for assessment of serotonin releasing capacities. A similar study design was applied for assessment of SERT occupancy.

[3] = VOR IV (17 mg day 0) + VOR oral (10 mg/day), Day 1, N 27
[4] = VOR IV (17 mg day 0) + VOR oral (10 mg/day), Day 3, N 27
[5] = VOR IV (17 mg day 0) + VOR oral (10 mg/day), Day 7, N 27
[6] = other: intravenous infusion plus oral tablets, VOR IV + VOR oral
[7] = PBO IV + VOR oral (10 mg/day), Day 1, N 28
[8] = PBO IV + VOR oral (10 mg/day), Day 3, N 28
[9] = PBO IV + VOR oral (10 mg/day), Day 7, N 28

- concentration at 2 h [2, 6]: 11.1 ± 9.3 ng/mL
- concentration at 8 h [2, 6]: 11 ± 2.9 ng/mL
- concentration at 24 h [2, 6]: 8.6 ± 2.6 ng/mL
- concentration at 14 day [2, 6]: 10.8 ± 7 ng/mL
- AUC(0-t) ([2]; other: intravenous infusion plus oral tablets, day 0, VOR IV+VOR oral treated patients): 251 ± 46 ng·h/mL
Compound: Cc1ccc(Sc2ccccc2N2CCNCC2)c(C)c1 [VOR IV + VOR oral]
- Change in 5-item MADRS score, Mean [1, 3]: −5.05
- Change in MADRS total score, Mean [1, 3]: −6.9
- Change in 5-item MADRS score, Mean [1, 4]: −6.96
- Change in MADRS total score, Mean [1, 4]: −12.1
- Change in 5-item MADRS score, Mean [1, 5]: −8.30
- Change in MADRS total score, Mean [1, 5]: −13.7
- Change in 5-item MADRS score, Mean ([1]; VOR IV (17 mg day 0) + VOR oral (10 mg/day), Day 14, N 27): -9.37
- Change in 5-item MADRS score, Difference ([1]; Day 1): −1.13
- Change in MADRS total score, Difference ([1]; Day 1): −1.4
- Change in 5-item MADRS score, Difference ([1]; Day 3): −0.96
- Change in MADRS total score, Difference ([1]; Day 3): −1.7
- Change in 5-item MADRS score, Difference ([1]; Day 7): −1.27
- Change in MADRS total score, Difference ([1]; Day 7): −0.3
- Change in 5-item MADRS score, Difference ([1]; Day 14): −0.16
- % responders (CGI-I ≤ 2) ([1]; VOR IV + VOR oral, Day 1): 18.5%
- % responders (≥50% reduction on MADRS Scale) ([1]; VOR IV + VOR oral, Day 1): 3.7%
- % responders (CGI-I ≤ 2) ([1]; VOR IV + VOR oral, Day 3): 50.0%
- % responders (≥50% reduction on MADRS Scale) ([1]; VOR IV + VOR oral, Day 3): 29.6%
- % responders (CGI-I ≤ 2) ([1]; VOR IV + VOR oral, Day 7): 53.8%
- % responders (≥50% reduction on MADRS Scale) ([1]; VOR IV + VOR oral, Day 7): 40.7%
- % responders (CGI-I ≤ 2) ([1]; VOR IV + VOR oral, Day 14): 73.1%
- % responders (≥50% reduction on MADRS Scale) ([1]; VOR IV + VOR oral, Day 14): 48.1%

- concentration at 2 h ([2]; 10 mg/day, PBO IV + VOR oral): 0.56 ± 1.18 ng/mL
- concentration at 8 h ([2]; 10 mg/day, PBO IV + VOR oral): 2.8 ± 1.8 ng/mL
- concentration at 24 h ([2]; 10 mg/day, PBO IV + VOR oral): 2.6 ± 1.3 ng/mL
- concentration at 14 day ([2]; 10 mg/day, PBO IV + VOR oral): 9.9 ± 5.3 ng/mL
- AUC(0-t) ([2]; oral, 10 mg/day, day 0, PBO IV+VOR oral treated patients): 47 ± 20 ng·h/mL
- AUC(0-t) ([2]; oral, 10 mg/day, day 14, PBO IV+VOR oral treated patients): 230 ± 85 ng·h/mL
Compound: Cc1ccc(Sc2ccccc2N2CCNCC2)c(C)c1 [PBO IV + VOR oral]
- Change in 5-item MADRS score, Mean [1, 7]: −3.92
- Change in MADRS total score, Mean [1, 7]: −5.5
- Change in 5-item MADRS score, Mean [1, 8]: −6.00
- Change in MADRS total score, Mean [1, 8]: −10.3
- Change in 5-item MADRS score, Mean [1, 9]: −7.03
- Change in MADRS total score, Mean [1, 9]: −13.4
- Change in 5-item MADRS score, Mean ([1]; PBO IV + VOR oral (10 mg/day), Day 14, N 28): -9.21
- % responders (CGI-I ≤ 2) ([1]; PBO IV + VOR oral, Day 1): 7.1%
- % responders (≥50% reduction on MADRS Scale) ([1]; PBO IV + VOR oral, Day 1): 0%
- % responders (CGI-I ≤ 2) ([1]; PBO IV + VOR oral, Day 3): 39.3%
- % responders (≥50% reduction on MADRS Scale) ([1]; PBO IV + VOR oral, Day 3): 14.3%
- % responders (CGI-I ≤ 2) ([1]; PBO IV + VOR oral, Day 7): 42.9%
- % responders (≥50% reduction on MADRS Scale) ([1]; PBO IV + VOR oral, Day 7): 28.6%
- % responders (CGI-I ≤ 2) ([1]; PBO IV + VOR oral, Day 14): 67.9%
- % responders (≥50% reduction on MADRS Scale) ([1]; PBO IV + VOR oral, Day 14): 50.0%

- change in vivo at 0.3 mg/kg (5-HT1B receptor; Amygdala): 4.6 ± 11.6%
- change in vivo at 0.3 mg/kg (5-HT1B receptor; Caudate nucleus): 7.1 ± 7.5%
- change in vivo at 0.3 mg/kg (5-HT1B receptor; Dorsal raphe nucleus): -21.2 ± 5.7%
- change in vivo at 0.3 mg/kg (5-HT1B receptor; Frontal gyrus): 12.4 ± 9.3%
- change in vivo at 0.3 mg/kg (5-HT1B receptor; Globus pallidus): -1.6 ± 9.6%
- change in vivo at 0.3 mg/kg (5-HT1B receptor; Hippocampus): 5.4 ± 12.5%
- change in vivo at 0.3 mg/kg (5-HT1B receptor; Midbrain): 2.7 ± 5.3%
- change in vivo at 0.3 mg/kg (5-HT1B receptor; Occipital gyrup): 15.7 ± 11.1%
- change in vivo at 0.3 mg/kg (5-HT1B receptor; Putamen): 7.3 ± 12%
- change in vivo at 0.3 mg/kg (5-HT1B receptor; Thalamus): 0.3 ± 5.6%
- change in vivo at 0.3 mg/kg (5-HT1B receptor; Ventral striatum): 3.1 ± 10.8%
Compound: CN(C)CCCC1(c2ccc(F)cc2)OCc2cc(C#N)ccc21 (centres unmarked) [Citalopram]
